The subject of one data set is Alternaria solani. The data set can be described thus: In vivo test on Alternaria solani (tomato leaf spot), preventive spray. To be noted: 168 h, tomato young plants, evaluated 7 days after inoculation, good (at least 70%) to total protection. On the procedure: In Vivo Test on Alternaria Solani (Tomato Leaf Spot) [table] To produce a suitable preparation of active compound, 1 part by weight of active compound is mixed with the stated amounts of solvent and emulsifier, and the concentrate is diluted with water to the desired concentration. Young plants are sprayed with the preparation of active compound at the stated rate of application. After the spray coating has dried on, the plants are inoculated with an aqueous spore suspension of Alternaria solani. The plants remain for one day in an incubation cabinet at approximately 20° C. and a relative atmospheric humidity of 100%. Then the plants are placed in an incubation cabinet at approximately 20° C. and a relative atmospheric humidity of 96%. The test is evaluated 7 days after the inoculation. Under these conditions, good (at least 70%) to total protection is observed at a dose of 500 ppm with the following compounds 110, 143, 160, 175, 176, 178, 179, 180, 186, 187, 189, 192, 196, 198, 203, 204, 205, 209, 210, 212, 214, 215 and 652.

The test system of a further data set is Podosphaera leucotricha. The data set can be described thus: In vivo test on Podosphaera leucotricha (apple mildew), preventive spray. Conditions: 240 h, apple young plants, evaluated 10 days after inoculation, good (at least 70%) to total protection. On the procedure: In Vivo Test on Podosphaera leucotncha (Apple Mildew) [table] To produce a suitable preparation of active compound, 1 part by weight of active compound is mixed with the stated amounts of solvent and emulsifier, and the concentrate is diluted with water to the desired concentration. Young plants are sprayed with the preparation of active compound at the stated rate of application. After the spray coating has dried on, the plants are inoculated with an aqueous spore suspension of the causal agent of apple mildew (Podosphaera leucobicha). The plants are then placed in a greenhouse at approximately 23° C. and a relative atmospheric humidity of approximately 70%. The test is evaluated 10 days after the inoculation. Under these conditions, good (at least 70%) to total protection is observed at a dose of 100 ppm with the following compounds: 104, 160, 176, 177, 180, 186, 187, 188, 192, 194, 196, 198, 203, 204, 205, 207, 209, 210, 211, 212, 213, 218 and 446.

The test system of data set [1] is Erysiphe graminis f.sp. horde. Nature of the data set: In vivo test on Erysiphe graminis (barley mildew), preventive spray. Conditions: Blumeria graminis, 168 h, barley young plants, evaluated 7 days after inoculation, good (at least 70%) to total protection. On the procedure:
In Vivo Test on Erysiphe Graminis (Barley Mildew) [table] To produce a suitable preparation of active compound, 1 part by weight of active compound or active compound combination is mixed with the stated amounts of solvent and emulsifier, and the concentrate is diluted with water to the desired concentration. Young plants are sprayed with the preparation of active compound or active compound combination at the stated rate of application. After the spray coating has dried on, the plants are dusted with spores of Erysiphe graminis f.sp. horde. The plants are placed in a greenhouse at a temperature of approximately 20° C. and a relative atmospheric humidity of approximately 80% to promote the development of mildew pustules. The test is evaluated 7 days after the inoculation. Under these conditions, good (at least 70%) to total protection is observed at a dose of 1000 ppm with the following compounds: 104, 160, 177, 178, 186, 192, 194, 203, 204, 205, 207, 210, 212, 213 and 435.

A short description of data set [2]: logP by HPLC on reversed-phase column (C 18), EEC Directive 79/B31 Annex V.A8, methods A and B. In kind it is physicochemical. Conditions: reversed-phase HPLC column (C 18), linear gradient 10% to 90% acetonitrile. On the procedure:
Calibration was carried out using unbranched alkan-2-ones (having 3 to 16 carbon atoms) with known logP values (determination of the logP values by the retention times using linear interpolation between two successive alkanones).

Another data set concerns Pyrenophora teres. Nature of the data set: In vivo test on Pyrenophora teres (barley net blotch). Conditions: 288 h, barley plants (Express variety), grading 12 days after contamination, good (at least 70%) or total protection. On the procedure: In Vivo Test on Pyrenophore teres (Barley Net Blotch)
The active ingredients tested are prepared by homogenisation in a mixture of acetone/tween/DMSO, then diluted with water to obtain the desired active material concentration. Barley plants (Express variety) in starter cups, sown on a 50/50 peat soil-pozzolana substrate and grown at 12° C., are treated at the 1-leaf stage (10 cm tall) by spraying with the active ingredient prepared as described above. Plants, used as controls, are treated with the mixture of acetone/tween/DMSO/water not containing the active material.
After 24 hours, the plants are contaminated by spraying them with an aqueous suspension of Pyrenophora teres spores (12,000 spores per ml). The spores are collected from a 12-day-old culture. The contaminated barley plants are incubated for 24 hours at about 20° C. and at 100% relative humidity, and then for 12 days at 80% relative humidity.

Another data set deals with Puccinia recondita. Nature of the data set: In vivo test on Puccinia recondita f. sp. tritici (wheat brown rust). To be noted: 240 h, wheat plants (Scipion variety), grading 10 days after contamination, good (at least 70%) or total protection.
Where [3] appears, read: HPLC reversed-phase C 18, method A: 43° C., 0.1% aqueous phosphoric acid, acetonitrile.

Structures are written as SMILES.

By pest or weed control is commonly meant the degree to which the test organism was suppressed or injured, in per cent. One may read the chromatographic logP as lipophilicity estimated from chromatographic retention. Low readings indicate a more hydrophilic compound, high ones a more lipophilic compound. Take `Cc1nn(C)c(F)c1C(=O)N(C1CC1)S(=O)(=O)c1ccc(O)c(O)c1O` [Compound 212]: the pest or weed control at 500 ppm with Alternaria solani is ≥ 70%. Also, the pest or weed control at 100 ppm in the data set with Podosphaera leucotricha was ≥ 70%. The pest or weed control at 1000 ppm in data set [1] was ≥ 70%. Also, the chromatographic logP in data set [2] (setting [3]) stood at 3.35.

For the molecule `Cc1nn(C)c(F)c1C(=O)N(C1CC1)S(=O)(=O)c1ccccc1OC(F)(F)F` [Compound 203], the pest or weed control at 500 ppm with Alternaria solani was ≥ 70%. Also, the pest or weed control at 100 ppm in the data set with Podosphaera leucotricha was ≥ 70%. Further, the pest or weed control at 1000 ppm in data set [1] is ≥ 70%. The molecule also registered a chromatographic logP in data set [2] (setting [3]) of 2.75.

Take `Cc1nn(C)c(F)c1C(=O)N(C1CC1)S(=O)(=O)c1ccccc1F` [Compound 205]: in the data set on Alternaria solani, the pest or weed control at 500 ppm was ≥ 70%. The pest or weed control at 100 ppm in the data set on Podosphaera leucotricha was ≥ 70%. Besides, the pest or weed control at 1000 ppm in data set [1] was ≥ 70%. For the same molecule, the chromatographic logP in data set [2] (setting [3]) came to 2.25.

Take `Cc1nn(C)c(F)c1C(=O)N(C1CC1)S(=O)(=O)c1ccc(O)c(O)c1` [Compound 178]: the pest or weed control at 500 ppm in the data set on Alternaria solani is ≥ 70%. Further, the pest or weed control at 1000 ppm in data set [1] was ≥ 70%. Moreover, the chromatographic logP in data set [2] (setting [3]) is 3.35.

In the case of `Cc1nn(C)c(F)c1C(=O)N(C1CC1)S(=O)(=O)c1ccc(C(F)(F)F)cc1O` [Compound 213], the pest or weed control at 100 ppm in the data set with Podosphaera leucotricha was ≥ 70%. Also, the pest or weed control at 1000 ppm in data set [1] is ≥ 70%. In addition, the chromatographic logP in data set [2] (setting [3]) worked out at 3.19.

`Cc1ccccc1S(=O)(=O)N(C(=O)c1c(C)nn(C)c1F)C1CC1` [Compound 196]: the pest or weed control at 500 ppm with Alternaria solani was ≥ 70%. Besides, the pest or weed control at 100 ppm in the data set with Podosphaera leucotricha is ≥ 70%. Moreover, in data set [2] (setting [3]), the chromatographic logP worked out at 2.43.

Take `Cc1nn(C)c(F)c1C(=O)N(C1CC1)S(=O)(=O)c1ccc(-c2ccccc2)cc1` [Compound 209]: in the data set on Alternaria solani, the pest or weed control at 500 ppm was ≥ 70%. In the data set on Podosphaera leucotricha, the pest or weed control at 100 ppm was ≥ 70%. The same molecule returned a chromatographic logP in data set [2] (setting [3]) of 3.39.

As for `Cc1nn(C)c(F)c1C(=O)N(C1CC1)S(=O)(=O)c1ccc(Oc2ccccc2)cc1` [Compound 187], in the data set on Alternaria solani, the pest or weed control at 500 ppm is ≥ 70%. In the data set on Podosphaera leucotricha, the pest or weed control at 100 ppm was ≥ 70%. The molecule further registered a chromatographic logP in data set [2] (setting [3]) of 3.42.

For `Cc1nn(C)c(F)c1C(=O)N(C1CC1)S(=O)(=O)c1cc(O)sc1O` [Compound 435], the pest or weed control at 1000 ppm in data set [1] is ≥ 70%. The molecule further returned a chromatographic logP in data set [2] (LogP method A: HPLC reversed-phase C 18, 43° C., 0.1% aqueous phosphoric acid / acetonitrile) of 3.16.

`Cn1nc(C(F)F)c(C(=O)N(C2CC2)S(=O)(=O)c2cccc(O)c2O)c1F` [Compound 104]: the pest or weed control at 100 ppm in the data set on Podosphaera leucotricha is ≥ 70%. Also, in data set [1], the pest or weed control at 1000 ppm was ≥ 70%. Also, the pest or weed control at 500 ppm with Pyrenophora teres and with Puccinia recondita was ≥ 70% each time. The molecule further returned a chromatographic logP in data set [2] (HPLC reversed-phase C 18, method B: 40° C., 0.1% aqueous formic acid and acetonitrile) of 3.2.

For `Cc1nn(C)c(F)c1C(=O)N(C1CC1)S(=O)(=O)c1ccccc1Br` [Compound 204], the pest or weed control at 500 ppm with Alternaria solani was ≥ 70%. For the same molecule, in the data set with Podosphaera leucotricha, the pest or weed control at 100 ppm was ≥ 70%. The pest or weed control at 1000 ppm in data set [1] was ≥ 70%. In data set [2] (setting [3]), this molecule came in with a chromatographic logP of 2.37.

For the molecule `Cc1nn(C)c(F)c1C(=O)N(C1CC1)S(=O)(=O)c1ccc(O)c(C(F)(F)F)c1` [Compound 194], the pest or weed control at 100 ppm in the data set on Podosphaera leucotricha is ≥ 70%. Also, in data set [1], the pest or weed control at 1000 ppm was ≥ 70%. Moreover, in data set [2] (setting [3]), the chromatographic logP turned out to be 3.5.

Consider `Cc1nn(C)c(F)c1C(=O)N(C1CC1)S(=O)(=O)c1ccccc1C(F)(F)F` [Compound 207], for which the pest or weed control at 100 ppm with Podosphaera leucotricha was ≥ 70%. Further, the pest or weed control at 1000 ppm in data set [1] is ≥ 70%. The chromatographic logP in data set [2] (setting [3]) was 2.6.

Take `Cc1nn(C)c(F)c1C(=O)N(C1CC1)S(=O)(=O)c1cccc(O)c1` [Compound 176]: in the data set on Alternaria solani, the pest or weed control at 500 ppm is ≥ 70%. In the data set on Podosphaera leucotricha, the pest or weed control at 100 ppm is ≥ 70%. The chromatographic logP in data set [2] (setting [3]) stood at 2.82.

Regarding `Cc1nn(C)c(F)c1C(=O)N(C1CC1)S(=O)(=O)c1cccc(C(F)(F)F)c1` [Compound 177], the pest or weed control at 100 ppm in the data set on Podosphaera leucotricha is ≥ 70%. The pest or weed control at 1000 ppm in data set [1] was ≥ 70%. This molecule also gave a chromatographic logP in data set [2] (setting [3]) of 3.03.

In the case of `Cc1nn(C)c(F)c1C(=O)N(C1CC1)S(=O)(=O)c1cccc(O)c1O` [Compound 210], the pest or weed control at 500 ppm in the data set with Alternaria solani and with Pyrenophora teres was ≥ 70% in each case. The pest or weed control at 100 ppm with Podosphaera leucotricha is ≥ 70%. For the same molecule, in data set [1], the pest or weed control at 1000 ppm was ≥ 70%. The molecule further displayed a chromatographic logP in data set [2] (setting [3]) of 2.77.

As to `Cc1ccc(C)c(S(=O)(=O)N(C(=O)c2c(C)nn(C)c2F)C2CC2)c1` [Compound 198], the pest or weed control at 500 ppm in the data set on Alternaria solani is ≥ 70%. The pest or weed control at 100 ppm with Podosphaera leucotricha was ≥ 70%. The molecule further displayed a chromatographic logP in data set [2] (setting [3]) of 2.78.

In the case of `Cc1nn(C)c(F)c1C(=O)N(C1CC1)S(=O)(=O)c1ccccc1O` [Compound 180], the pest or weed control at 500 ppm with Alternaria solani and with Pyrenophora teres was ≥ 70% throughout. Also, in the data set with Podosphaera leucotricha, the pest or weed control at 100 ppm was ≥ 70%. This molecule also yielded a chromatographic logP in data set [2] (setting [3]) of 2.34.

As to `Cc1nn(C)c(F)c1C(=O)N(C1CC1)S(=O)(=O)c1ccc(O)cc1O` [Compound 186], the pest or weed control at 500 ppm in the data set on Alternaria solani is ≥ 70%. Moreover, in the data set on Podosphaera leucotricha, the pest or weed control at 100 ppm is ≥ 70%. The pest or weed control at 1000 ppm in data set [1] is ≥ 70%. This molecule also registered a chromatographic logP in data set [2] (setting [3]) of 2.94.

Regarding `Cc1nn(C)c(F)c1C(=O)N(C1CC1)S(=O)(=O)c1ccc(C(C)(C)C)cc1` [Compound 192], the pest or weed control at 500 ppm in the data set with Alternaria solani is ≥ 70%. In addition, in the data set on Podosphaera leucotricha, the pest or weed control at 100 ppm is ≥ 70%. For the same molecule, the pest or weed control at 1000 ppm in data set [1] was ≥ 70%. Moreover, in data set [2] (setting [3]), the chromatographic logP came out at 3.55.

These data come from patent publication US7932283B2, “Fungicide N-cyclopropyl-sulfonylamide derivatives” (Bayer Cropscience AG, priority 2006, dated 2011).
